Earlier results as cited in publication PMC11094875, “Cholecystokinin B receptor agonists alleviates anterograde amnesia in cholecystokinin-deficient and aged Alzheimer's disease mice” (Alzheimer's Research & Therapy, 2024).
Where two headings read alike, the source gives them in different places.

Legend:
[1] = as stated in the MWM method for the dosing schedule; no reference given
[2] = human plasm ref 31
[3] = rat plasm ref 31

half-life [1]: less than 5 min
half-life [2]: 13 min
half-life [3]: < 1 min
Structure (SMILES): CSCC[C@H](NC(=O)[C@@H](N)Cc1c[nH]c2ccccc12)C(=O)N[C@@H](CC(=O)O)C(=O)N[C@@H](Cc1ccccc1)C(N)=O [CCK-4, CCK tetrapeptide]
